In PubChem BioAssay (NCI):
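48-hour exposure; five concentrations; linearly interpolated endpoints. GI50 marks 50% less growth. At the TGI there is no net growth.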

Key:
Experiment in all cases: NCI anticancer screen, dose series, 48 h
SR leukemia = test system: SR leukemia
COLO 205 colon = test system: COLO 205 colon
ACHN renal = test system: ACHN renal
HT29 colon = test system: HT29 colon
HCT-15 colon = test system: HCT-15 colon
SF-295 CNS = test system: SF-295 CNS
SNB-75 CNS = test system: SNB-75 CNS
OVCAR-3 ovarian = test system: OVCAR-3 ovarian
SN12C renal = test system: SN12C renal
U251 CNS = test system: U251 CNS

SMILES | TGI (SR leukemia) [µM] | TGI (COLO 205 colon) [µM] | TGI (ACHN renal) [µM] | TGI (HT29 colon) [µM] | TGI (HCT-15 colon) [µM] | TGI (SF-295 CNS) [µM] | TGI (SNB-75 CNS) [µM] | TGI (OVCAR-3 ovarian) [µM] | TGI (SN12C renal) [µM] | TGI (U251 CNS) [µM] | GI50 (SR leukemia) [µM] | GI50 (COLO 205 colon) [µM] | GI50 (ACHN renal) [µM] | GI50 (HT29 colon) [µM] | GI50 (HCT-15 colon) [µM] | GI50 (SF-295 CNS) [µM] | GI50 (SNB-75 CNS) [µM] | GI50 (OVCAR-3 ovarian) [µM] | GI50 (SN12C renal) [µM] | GI50 (U251 CNS) [µM]
COc1ccc(C2=Nc3ccccc3NC(=O)C2)cc1 | > 100 | > 100 | > 100 | > 100 | > 100 | 47.8 | 57.3 | > 100 | > 100 | 82.3 | – | – | – | – | – | – | – | – | – | –
COc1cc2c(c(OC)c1)C1c3ccccc3NC(=O)N1CC2 (configuration not stated) | > 100 | 8.25 | > 100 | > 100 | > 100 | 9.14 | > 100 | > 100 | > 100 | > 100 | 2.77 | 2.82 | 5.48 | 3.37 | 3.14 | 2.63 | 2.69 | 3.27 | 7.27 | 4.38
CCc1ccccc1NC(=O)C(=O)CC(=O)c1sc(Nc2ccccc2)nc1C | > 100 | > 100 | > 100 | > 100 | > 100 | > 100 | > 100 | > 100 | > 100 | > 100 | – | – | – | – | – | – | – | – | – | –
O=c1cc(-c2ccccc2)[nH]c2ccccc12 | > 100 | – | > 100 | > 34.8 | > 100 | > 100 | > 100 | – | > 100 | > 100 | – | 0.45 | 0.858 | 0.39 | 0.481 | 0.458 | 0.542 | 0.342 | 1.73 | 0.573
CN1CCC(n2cnc(-c3ccc(F)cc3)c2-c2ccnc(NCCO)n2)CC1 | > 25 | > 25 | > 25 | > 25 | > 25 | > 25 | > 25 | > 25 | > 25 | > 25 | 23.7 | 8.86 | 12.1 | 10 | 20.7 | > 19.8 | 12.3 | > 23.4 | > 18.9 | 12.7
NCCOCCOCCNc1nc(Cc2ccccc2)nc(NCCCN2CCCC2=O)n1 | > 100 | > 100 | > 100 | > 100 | > 100 | > 100 | > 100 | > 100 | > 100 | > 100 | > 100 | > 100 | > 100 | > 100 | > 100 | > 100 | > 100 | > 100 | > 100 | > 100
CC(C)c1cc(-c2n[nH]c(=O)n2-c2ccc3c(ccn3C)c2)c(O)cc1O | 35 | 0.981 | > 43.1 | 12.5 | > 47.7 | 0.796 | 97.7 | 19.4 | > 52.2 | 18 | < 0.01 | 0.0259 | < 0.0209 | 0.0423 | < 0.02 | < 0.0215 | 1.58 | < 0.0237 | < 0.0222 | < 0.0257
N#C/C(=C\c1ccc(O)c(O)c1)C(N)=S | > 100 | > 100 | > 100 | > 100 | > 100 | > 100 | > 100 | > 100 | > 100 | > 100 | – | – | – | – | – | – | – | – | – | –
COc1ccc(-c2c3c(N)nc(-c4ccncc4)nc3nc3c2c(C)nn3-c2ccccc2)cc1 | > 100 | > 100 | > 100 | 16 | > 100 | > 100 | 28.4 | 16 | > 100 | 19 | 1.53 | 6.12 | 4.58 | 3.57 | > 100 | 24.7 | 3.62 | 3.89 | 44.4 | 3.6
COc1ccc(/C=C(/C#N)C(N)=O)cc1OC | > 100 | > 100 | > 100 | > 100 | > 100 | > 100 | > 100 | > 100 | > 100 | > 100 | – | – | – | – | – | – | – | – | – | –
Cc1ccccc1[P+](Cc1ccccc1)(c1ccccc1)c1ccccc1 | 15.7 | 4 | > 100 | 29 | > 100 | 5.28 | 20.2 | > 100 | 90.3 | 35.2 | 1.6 | 1.51 | 8.3 | 1.79 | 23.5 | 1.75 | 2.14 | 1.42 | 2.85 | 1.99
C=CCC[CH2][Sn]([c]1ccccc1)([c]1ccccc1)[c]1ccccc1 | 5.28 | 3 | 3.07 | 4.73 | 3.07 | 3.6 | 6.88 | 2.91 | 2.95 | 3.01 | 0.572 | 1.64 | 1.66 | 2.25 | 1.52 | 1.99 | 2.49 | 1.54 | 1.57 | 1.65
Cc1c(C(=O)C/C(=N\O)C(=O)Nc2cc(Cl)c(Cl)cc2Cl)[n+](=O)c2ccccc2n1[O-] | 84.4 | 12.6 | 67.5 | > 100 | 23.5 | 53.5 | > 100 | 7.52 | 18.9 | 31.3 | – | – | – | – | – | – | – | – | – | –
